According to patent US20240197756A1, “METHODS OF TREATMENT WITH NEUROACTIVE STEROIDS” (priority 2021, published 2024):
“Also recorded” adds a separate entry of the source.

What was measured:
[1] = test system: harmaline-induced tremor; assay: Rat Harmaline Induced Tremor (rHIT) model; format: in vivo; settings: 0.3, 1, 3, 10 mg/kg i.p., 30 min before harmaline 30 mg/kg i.p. (FIG. 9)
Text: A rat model of tremor (Rat Harmaline Induced Tremor; rHIT) was used to assess the impact of Compound 1 on reducing the symptoms of tremor. Male SD rats (SLAC, Shanghai, China) having a body weight of about 250 g at the time of testing were fed ad libitum and kept in a 12:12 light-dark cycle room, with the lights on from 5 a.m. to 5 p.m, throughout the study. Rats were allowed to acclimate to standard laboratory conditions for at least 5-7 days prior to the experiment.
One day prior to testing, a naive rat was placed in the testing chamber, which was a plexiglass chamber with a piezoelectric plate attached at the bottom to transduce tremor behavior into an electrical signal. The rat was placed in the chamber in order to adjust the spontaneous activity baseline signal. […]
Next, at T=0 minutes, all groups were intraperitoneally administered 30 mg/kg (5 mL/kg) of harmaline formulated in a saline vehicle. The post-harmaline effect was measured for twenty minutes (T=10 to 30 minutes). […]
Piezoelectric plate signal analysis: For the power spectral density analysis, electrical tremor signal was processed with fast Fourier transform (FFT) at a resolution of 0.5 Hz bins. […] The average maximum power density across the 8-13 Hz band in 0.5 Hz bins was also calculated. […]

[2] = Food Effect Cohort (Cohort 4), plasma pharmacokinetics fasted vs high-fat meal; format: in vivo, human
Method: A Food Effect Cohort (Cohort 4) was conducted to assess the effect of food on the PK profile of a single dose of Compound 1 when administered to healthy subjects. The subjects of Cohort 4 were treated with 30 mg of Compound 1 QD.
Cohort 4 subjects received a single 30 mg dose of a Compound 1 suspension on Days 1 and 5. The Day 1 dose was administered after a minimum of 10 hour fasting. No additional fluid intake was allowed until 1 hour after drug administration. A standard meal was given at least 4 hours post-dose. The Day 5 dose was administered following a high-fat, high calorie meal. Participants remained at the clinical site for a total of 8 days to complete pharmacokinetic sampling after the second dose.
Plasma samples were analyzed to determine Compound 1 concentrations using a validated assay method. Pharmacokinetic variables (including but not limited to Cmax, Tmax and AUC(0-last)) were calculated using non-compartmental analysis. PK parameters for Compound 1 were derived from the plasma concentration data using non-compartmental analysis with Phoenix™ WinNonlin® v 8.0 (Pharsight Corporation, USA).
Blood (Cohort 4): Serial blood samples were collected relative to the dosing of Compound 1 at the following time points on both Day 1 and Day 5: Pre-dose (0 hours), 0.25, 0.50, 0.75, 1.00, 1.50, 2.00, 2.50, 3.00, 4.00, 6.00, 8.00, 12.00, 16.00, 24.00, 36.00, 48.00 and 72.00 hours post-dose (±2 min).

[3] = test system: GABAA receptors in the brain; assay: Quantitative EEG (qEEG) alpha- and beta-band power in Phase 1 MAD trial; format: in vivo, human
Method: Pharmacodynamic (PD) effects of first dose and steady state Compound 1 concentrations on wake electroencephalograms (EEGs) were studied. Standard 16 channel continuous EEGs were obtained at the following time points: Day-1, Day 1 (1 hour after dosing), and Day 14 (1 hour after dosing).
The effect of Compound 1 on the quantitative EEG (qEEG) was measured in a Phase 1 multiple ascending dose (MAD) trial to understand the pharmacodynamic effect of Compound 1 on GABAA receptor activation. The frequency and amplitude of the detected electrical signals in response to treatment with a brain-active compound provide insights into brain function and brain state (e.g., awake, deep sleep, etc.) or pharmacological response. For instance, changes in power in the beta-band frequency can be used as a pharmacodynamic biomarker of GABAA receptor activation in response to a brain active compound.
EEG was recorded for 5 minutes in quiet eyes open condition using a standard 10-20 EEG electrode placement system at pre-dose and 1, 2, 4, 8 and 24 hours after dosing. Each lead was referenced to the Oz electrode. Artifacts were removed via visual inspections. EEG spectra were computed using Fourier transformation. The alpha-band frequency was set to 8.5-12.5 Hz, the beta-band frequency was set to 12.5 to 30 Hz. The ratio between each post-dose value and the associated pre-dose value for each electrode was used to calculate the fold EEG change in each frequency band so that a ratio of 1 represents no change from baseline. The mean of the central 9 electrodes was used for each subject and timepoint for final analysis.

[4] = 30 mg single dose, Fasted (Day 1), n = 10, Mean
[5] = 30 mg single dose, Fed (high-fat, high calorie meal), n = 10, Mean
[6] = 30 mg, one hour post-dose on Day 1, healthy volunteers
[7] = 60 mg, one hour post-dose on Day 1, healthy volunteers
[8] = healthy volunteers, days 1 and 14

COC[C@@]1(O)CC[C@@]2(C)[C@@H](CC[C@@H]3[C@@H]2CC[C@]2(C)[C@@H](C(=O)Cn4ccnc4)CC[C@@H]32)C1 [Compound 1, 3α-Hydroxy-3β-methoxymethyl-21-(1′-imidazolyl)-5α-pregnan-20-one]
inhibition of harmaline-induced tremor [1]: dose-dependently inhibits; also recorded: dose dependent inhibition
t1/2 fasted vs fed conditions ([2]; 30 mg dose): similar
AUC increase in the fed state versus the fasted state ([2]; 30 mg dose group): 1.17 fold
AUC0-t Fed/Fasted Ratio ([2]; 30 mg dose, high-fat meal): 1.17
Cmax Fed/Fasted Ratio ([2]; 30 mg dose, high-fat meal): 0.64
AUC0-last [2, 4]: 597.7 ng·h/mL
AUC %Extrap [2, 4]: 0.8702%
AUCinf [2, 4]: 602.3 ng·h/mL
Cmax [2, 4]: 84.18 ng/mL
AUC0-last [2, 5]: 629.9 ng·h/mL
AUC %Extrap [2, 5]: 0.6632%
AUCinf [2, 5]: 634.2 ng·h/mL
Cmax [2, 5]: 45.36 ng/mL
Tmax ([2]; 30 mg single dose, Fed (high-fat, high calorie meal), n = 10, Median): 3.25 h
Cmax decrease under fed conditions ([2]; human, in vivo, 30 mg): 0.64 fold
half-life ([2]; human, in vivo, 30 mg single dose, Fasted (Day 1), n = 10, Mean): 11.2 h
effects on the qEEG alpha and beta power at Day 14 ([3]; 30 mg and 60 mg QD): sustained
average increase in qEEG alpha power compared to baseline [3, 6]: approximately 1.5 fold
average increase in qEEG beta power compared to baseline [3, 6]: ~1.6 fold
increase in qEEG alpha power compared to baseline [3, 7]: 2.6 fold
increase in qEEG beta power compared to baseline [3, 7]: 2.8 fold
increases in beta power ([3]; MAD study, up to 60 mg): up to 2.8 fold
power of the alpha-band frequency (qEEG) [3, 8]: marked increases; also recorded: markedly increase
power of the beta-band frequency (qEEG) [3, 8]: marked increases; also recorded: markedly increase
